One compound from paper PMC12076163 (Chemical Science, 2025) can be followed below.

The Kd is the constant that tells how readily two partners part at equilibrium. Higher therefore signals lower affinity.

Each structure is given as a SMILES string.

This experiment concerns the target hen egg-white lysozyme (Gallus gallus, UniProt P00698). The experiment can be described thus: 1H–[…] HMQC NMR of caged lysozyme with cage-tethered GlcNAc. In kind it is biochemical.

Regarding `CC(=O)N[C@H]1C(O)O[C@H](CO)[C@@H](O)[C@@H]1O` (stereo partly shown) [GlcNAc, N-acetylglucosamine], the Kd was found to be 6 µM.
